Five compounds from ChEMBL document CHEMBL4304808, “PROTAC Degradation of IRAK4 for the Treatment of Neurodegenerative and Cardiovascular Diseases” (ACS Med Chem Lett, 2019) can be followed below.

Test [1] has as its target T1, Interleukin-1 receptor-associated kinase 4 (Homo sapiens, UniProt Q9NWZ3).
T1 sequence (Q9NWZ3 whole entry): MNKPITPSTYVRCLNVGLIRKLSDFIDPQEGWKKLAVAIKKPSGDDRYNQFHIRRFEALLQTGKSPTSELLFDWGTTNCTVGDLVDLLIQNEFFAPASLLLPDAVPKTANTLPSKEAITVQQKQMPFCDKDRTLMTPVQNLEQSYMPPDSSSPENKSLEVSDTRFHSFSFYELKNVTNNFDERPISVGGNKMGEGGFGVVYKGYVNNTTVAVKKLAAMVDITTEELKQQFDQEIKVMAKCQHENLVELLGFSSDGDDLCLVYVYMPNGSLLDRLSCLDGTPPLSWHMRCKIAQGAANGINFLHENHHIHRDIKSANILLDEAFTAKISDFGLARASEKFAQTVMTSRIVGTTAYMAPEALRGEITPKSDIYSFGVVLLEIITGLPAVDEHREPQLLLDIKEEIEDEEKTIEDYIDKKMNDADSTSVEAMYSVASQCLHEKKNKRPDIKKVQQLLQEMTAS
As to the kind of experiment: Inhibition of N-terminal GST-tagged human IRAK4 (2 to end residues) expressed in baculovirus infected Sf9 cells using Ser/Thr 7 peptide as substrate in presence of ATP after 1 hr by Z'-LYTE assay.

Test [2] concerns the target T2, Protein cereblon/Interleukin-1 receptor-associated kinase 4 (Homo sapiens, UniProt Q9NWZ3+Q96SW2). As to the kind of experiment: Protac activity at E3 ubiquitin ligase/IRAK4 in human MCF7 cells assessed as IRAK4 degradation after 24 hrs by Western blot analysis. Type of test: cell-based.
Target sequence in this assay (Q96SW2 whole entry, one chain of several): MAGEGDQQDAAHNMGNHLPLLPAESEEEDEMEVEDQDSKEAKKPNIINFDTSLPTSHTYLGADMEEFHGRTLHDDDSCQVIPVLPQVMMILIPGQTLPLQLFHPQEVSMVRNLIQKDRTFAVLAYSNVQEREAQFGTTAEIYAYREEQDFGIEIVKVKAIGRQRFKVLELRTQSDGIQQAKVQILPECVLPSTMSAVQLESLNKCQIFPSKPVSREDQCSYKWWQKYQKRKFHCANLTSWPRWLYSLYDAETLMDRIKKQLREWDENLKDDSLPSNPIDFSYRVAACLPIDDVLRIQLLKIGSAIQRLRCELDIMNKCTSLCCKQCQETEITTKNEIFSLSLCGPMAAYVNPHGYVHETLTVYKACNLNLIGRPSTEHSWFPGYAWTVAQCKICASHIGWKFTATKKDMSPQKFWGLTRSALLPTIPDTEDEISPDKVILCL
Test [3] has as its target T2, Protein cereblon/Interleukin-1 receptor-associated kinase 4. As to the kind of experiment: Protac activity at E3 ubiquitin ligase/IRAK4 in human MCF7 cells assessed as IRAK4 degradation after 24 hrs by Western blot analysis relative to control. Type of test: cell-based.
Target sequence in this assay (Q96SW2 whole entry, looked up, one chain of several): as the sequence (Q96SW2 whole entry, one chain of several) above

By IC50 is commonly meant the concentration that inhibits the measured activity by half. For orientation: DC50 means the concentration giving 50% degradation. The term Emax denotes the maximal effect, on the per cent scale that the assay sets. With `COc1cc2nn(C3CCN(CCOCCOc4ccc5c(c4)C(=O)N(C4CCC(=O)NC4=O)C5=O)CC3)cc2cc1NC(=O)c1cccc(C(F)(F)F)n1` (stereo not given), the IC50 in test [1] is less than 30 nM. Moreover, in test [2], the DC50 was less than 30 nM. Moreover, in test [3], the Emax was more than 50%.
Turning to `COc1cc2nn(C3CCN(CCOCCOc4ccc5c(c4)CN(C4CCC(=O)NC4=O)C5=O)CC3)cc2cc1NC(=O)c1cccc(C(F)(F)F)n1` (stereo not given), in test [1], the IC50 was less than 30 nM. In test [2], the 50% degradation concentration (DC50) was less than 30 nM. For the same compound, in test [3], the maximum response (Emax) was more than 50%.
In the case of `O=C1CCC(N2C(=O)c3ccc(N4CCC(CN5CCN(Cc6ccc7c(c6)nc(NC(=O)c6cccc(C(F)(F)F)c6)n7[C@H]6CC[C@@H](CO)CC6)CC5)CC4)cc3C2=O)C(=O)N1` (stereo not given in full), the IC50 in test [1] was less than 30 nM. The DC50 in test [2] is less than 30 nM. Also, the Emax in test [3] is more than 70%.
Take `O=C1CCC(N2C(=O)c3ccc(OCCOCCOCCN4CCN(Cc5ccc6c(c5)nc(NC(=O)c5cccc(C(F)(F)F)c5)n6[C@H]5CC[C@@H](CO)CC5)CC4)cc3C2=O)C(=O)N1` (stereo not given in full): the IC50 in test [1] is less than 30 nM. In test [2], the 50% degradation concentration (DC50) was less than 30 nM. Besides, the maximum response (Emax) in test [3] is more than 70%.
In the case of `O=C1CCC(N2C(=O)c3ccc(OC4CCC(CN5CCN(Cc6ccc7c(c6)nc(NC(=O)c6cccc(C(F)(F)F)c6)n7[C@H]6CC[C@@H](CO)CC6)CC5)CC4)cc3C2=O)C(=O)N1` (stereo not given in full), in test [1], the IC50 is less than 30 nM. Further, the 50% degradation concentration (DC50) in test [2] fell in the range of 30 to 100 nM. In test [3], the Emax was more than 70%.
